Numbers after ± are expanded uncertainties.
Settings: Liquid, Vibrating tube method

With `CCCOCC(C)O` (centres undefined) [1-propoxy-2-propanol] the mass density (283.15 K, 100 kPa) was 895.1 ± 0.7 kg/m3, the mass density (283.15 K, 1000 kPa) was 895.7 ± 0.7 kg/m3 and the mass density (283.15 K, 2500 kPa) was 896.7 ± 0.7 kg/m3. The mass density (283.15 K, 5000 kPa) was 898.5 ± 0.7 kg/m3, the mass density (283.15 K, 7500 kPa) was 900.1 ± 0.7 kg/m3 and the mass density (283.15 K, 10000 kPa) was 901.8 ± 0.7 kg/m3. The mass density (283.15 K, 15000 kPa) was 905 ± 0.7 kg/m3, the mass density (283.15 K, 20000 kPa) was 908.1 ± 0.7 kg/m3 and the mass density (283.15 K, 25000 kPa) was 911.1 ± 0.7 kg/m3. The mass density (293.15 K, 100 kPa) was 886 ± 0.7 kg/m3, the mass density (293.15 K, 1000 kPa) was 886.6 ± 0.7 kg/m3 and the mass density (293.15 K, 2500 kPa) was 887.7 ± 0.7 kg/m3. It also gave a mass density (293.15 K, 5000 kPa) of 889.6 ± 0.7 kg/m3, a mass density (293.15 K, 7500 kPa) of 891.3 ± 0.7 kg/m3 and a mass density (293.15 K, 10000 kPa) of 893.1 ± 0.7 kg/m3. For the same compound, the mass density (293.15 K, 15000 kPa) was 896.5 ± 0.7 kg/m3, the mass density (293.15 K, 20000 kPa) was 899.8 ± 0.7 kg/m3 and the mass density (293.15 K, 25000 kPa) was 902.9 ± 0.7 kg/m3. For the same compound, the mass density (303.15 K, 100 kPa) was 876.4 ± 0.7 kg/m3, the mass density (303.15 K, 1000 kPa) was 877.2 ± 0.7 kg/m3 and the mass density (303.15 K, 2500 kPa) was 878.4 ± 0.7 kg/m3. For the same compound, the mass density (303.15 K, 5000 kPa) was 880.3 ± 0.7 kg/m3, the mass density (303.15 K, 7500 kPa) was 882.2 ± 0.7 kg/m3 and the mass density (303.15 K, 10000 kPa) was 884 ± 0.7 kg/m3. The mass density (303.15 K, 15000 kPa) was 887.6 ± 0.7 kg/m3, the mass density (303.15 K, 20000 kPa) was 891.1 ± 0.7 kg/m3 and the mass density (303.15 K, 25000 kPa) was 894.4 ± 0.7 kg/m3. For the same compound, the mass density (313.15 K, 100 kPa) was 866.9 ± 0.7 kg/m3, the mass density (313.15 K, 1000 kPa) was 867.6 ± 0.7 kg/m3 and the mass density (313.15 K, 2500 kPa) was 868.9 ± 0.7 kg/m3. The mass density (313.15 K, 5000 kPa) was 871 ± 0.7 kg/m3, the mass density (313.15 K, 7500 kPa) was 873 ± 0.7 kg/m3 and the mass density (313.15 K, 10000 kPa) was 875 ± 0.7 kg/m3. The mass density (313.15 K, 15000 kPa) was 878.8 ± 0.7 kg/m3, the mass density (313.15 K, 20000 kPa) was 882.4 ± 0.7 kg/m3 and the mass density (313.15 K, 25000 kPa) was 885.9 ± 0.7 kg/m3. It also gave a mass density (323.15 K, 100 kPa) of 857.2 ± 0.7 kg/m3, a mass density (323.15 K, 1000 kPa) of 858 ± 0.7 kg/m3 and a mass density (323.15 K, 2500 kPa) of 859.3 ± 0.7 kg/m3. It also gave a mass density (323.15 K, 5000 kPa) of 861.4 ± 0.7 kg/m3, a mass density (323.15 K, 7500 kPa) of 863.5 ± 0.7 kg/m3 and a mass density (323.15 K, 10000 kPa) of 865.6 ± 0.7 kg/m3. The mass density (323.15 K, 15000 kPa) was 869.6 ± 0.7 kg/m3, the mass density (323.15 K, 20000 kPa) was 873.5 ± 0.7 kg/m3 and the mass density (323.15 K, 25000 kPa) was 877.2 ± 0.7 kg/m3. For the same compound, the mass density (333.15 K, 100 kPa) was 847.1 ± 0.7 kg/m3, the mass density (333.15 K, 1000 kPa) was 847.9 ± 0.7 kg/m3 and the mass density (333.15 K, 2500 kPa) was 849.3 ± 0.7 kg/m3. It also gave a mass density (333.15 K, 5000 kPa) of 851.7 ± 0.7 kg/m3, a mass density (333.15 K, 7500 kPa) of 853.9 ± 0.7 kg/m3 and a mass density (333.15 K, 10000 kPa) of 856.1 ± 0.7 kg/m3. It also gave a mass density (333.15 K, 15000 kPa) of 860.3 ± 0.7 kg/m3, a mass density (333.15 K, 20000 kPa) of 864.3 ± 0.7 kg/m3 and a mass density (333.15 K, 25000 kPa) of 868.1 ± 0.7 kg/m3. The mass density (343.15 K, 100 kPa) was 837.5 ± 0.7 kg/m3, the mass density (343.15 K, 1000 kPa) was 838.4 ± 0.7 kg/m3 and the mass density (343.15 K, 2500 kPa) was 840 ± 0.7 kg/m3. For the same compound, the mass density (343.15 K, 5000 kPa) was 842.4 ± 0.7 kg/m3, the mass density (343.15 K, 7500 kPa) was 844.9 ± 0.7 kg/m3 and the mass density (343.15 K, 10000 kPa) was 847.2 ± 0.7 kg/m3. The mass density (343.15 K, 15000 kPa) was 851.8 ± 0.7 kg/m3, the mass density (343.15 K, 20000 kPa) was 856 ± 0.7 kg/m3 and the mass density (343.15 K, 25000 kPa) was 860.1 ± 0.7 kg/m3. For the same compound, the mass density (353.15 K, 100 kPa) was 827.3 ± 0.6 kg/m3, the mass density (353.15 K, 1000 kPa) was 828.3 ± 0.6 kg/m3 and the mass density (353.15 K, 2500 kPa) was 829.9 ± 0.7 kg/m3. It also gave a mass density (353.15 K, 5000 kPa) of 832.6 ± 0.7 kg/m3, a mass density (353.15 K, 7500 kPa) of 835.2 ± 0.7 kg/m3 and a mass density (353.15 K, 10000 kPa) of 837.7 ± 0.7 kg/m3. For the same compound, the mass density (353.15 K, 15000 kPa) was 842.5 ± 0.7 kg/m3, the mass density (353.15 K, 20000 kPa) was 847 ± 0.7 kg/m3 and the mass density (353.15 K, 25000 kPa) was 851.3 ± 0.7 kg/m3.
For `CCCCOCCOCCO` [3,6-dioxa-1-decanol], the mass density (283.15 K, 100 kPa) was 960.5 ± 0.5 kg/m3, the mass density (283.15 K, 1000 kPa) was 961 ± 0.5 kg/m3 and the mass density (283.15 K, 2500 kPa) was 961.9 ± 0.5 kg/m3. It also gave a mass density (283.15 K, 5000 kPa) of 963.4 ± 0.5 kg/m3, a mass density (283.15 K, 7500 kPa) of 964.9 ± 0.5 kg/m3 and a mass density (283.15 K, 10000 kPa) of 966.3 ± 0.5 kg/m3. For the same compound, the mass density (283.15 K, 15000 kPa) was 969.1 ± 0.5 kg/m3, the mass density (283.15 K, 20000 kPa) was 971.8 ± 0.5 kg/m3 and the mass density (283.15 K, 25000 kPa) was 974.4 ± 0.5 kg/m3. The mass density (293.15 K, 100 kPa) was 952.2 ± 0.5 kg/m3, the mass density (293.15 K, 1000 kPa) was 952.7 ± 0.5 kg/m3 and the mass density (293.15 K, 2500 kPa) was 953.7 ± 0.5 kg/m3. The mass density (293.15 K, 5000 kPa) was 955.2 ± 0.5 kg/m3, the mass density (293.15 K, 7500 kPa) was 956.7 ± 0.5 kg/m3 and the mass density (293.15 K, 10000 kPa) was 958.2 ± 0.5 kg/m3. For the same compound, the mass density (293.15 K, 15000 kPa) was 961.1 ± 0.5 kg/m3, the mass density (293.15 K, 20000 kPa) was 963.9 ± 0.5 kg/m3 and the mass density (293.15 K, 25000 kPa) was 966.7 ± 0.5 kg/m3. For the same compound, the mass density (303.15 K, 100 kPa) was 943.8 ± 0.5 kg/m3, the mass density (303.15 K, 1000 kPa) was 944.3 ± 0.5 kg/m3 and the mass density (303.15 K, 2500 kPa) was 945.3 ± 0.5 kg/m3. The mass density (303.15 K, 5000 kPa) was 946.9 ± 0.5 kg/m3, the mass density (303.15 K, 7500 kPa) was 948.5 ± 0.5 kg/m3 and the mass density (303.15 K, 10000 kPa) was 950.1 ± 0.5 kg/m3. The mass density (303.15 K, 15000 kPa) was 953.1 ± 0.5 kg/m3, the mass density (303.15 K, 20000 kPa) was 956.1 ± 0.5 kg/m3 and the mass density (303.15 K, 25000 kPa) was 959 ± 0.5 kg/m3. For the same compound, the mass density (313.15 K, 100 kPa) was 935.3 ± 0.5 kg/m3, the mass density (313.15 K, 1000 kPa) was 935.9 ± 0.5 kg/m3 and the mass density (313.15 K, 2500 kPa) was 936.9 ± 0.5 kg/m3. The mass density (313.15 K, 5000 kPa) was 938.6 ± 0.5 kg/m3, the mass density (313.15 K, 7500 kPa) was 940.3 ± 0.5 kg/m3 and the mass density (313.15 K, 10000 kPa) was 941.9 ± 0.5 kg/m3. The mass density (313.15 K, 15000 kPa) was 945.1 ± 0.5 kg/m3, the mass density (313.15 K, 20000 kPa) was 948.2 ± 0.5 kg/m3 and the mass density (313.15 K, 25000 kPa) was 951.2 ± 0.5 kg/m3. The mass density (323.15 K, 100 kPa) was 926.6 ± 0.5 kg/m3, the mass density (323.15 K, 1000 kPa) was 927.2 ± 0.5 kg/m3 and the mass density (323.15 K, 2500 kPa) was 928.3 ± 0.5 kg/m3. For the same compound, the mass density (323.15 K, 5000 kPa) was 930.1 ± 0.5 kg/m3, the mass density (323.15 K, 7500 kPa) was 931.8 ± 0.5 kg/m3 and the mass density (323.15 K, 10000 kPa) was 933.5 ± 0.5 kg/m3. The mass density (323.15 K, 15000 kPa) was 936.9 ± 0.5 kg/m3, the mass density (323.15 K, 20000 kPa) was 940.1 ± 0.5 kg/m3 and the mass density (323.15 K, 25000 kPa) was 943.2 ± 0.5 kg/m3. It also gave a mass density (333.15 K, 100 kPa) of 917.8 ± 0.5 kg/m3, a mass density (333.15 K, 1000 kPa) of 918.5 ± 0.5 kg/m3 and a mass density (333.15 K, 2500 kPa) of 919.7 ± 0.5 kg/m3. For the same compound, the mass density (333.15 K, 5000 kPa) was 921.6 ± 0.5 kg/m3, the mass density (333.15 K, 7500 kPa) was 923.4 ± 0.5 kg/m3 and the mass density (333.15 K, 10000 kPa) was 925.2 ± 0.5 kg/m3. For the same compound, the mass density (333.15 K, 15000 kPa) was 928.7 ± 0.5 kg/m3, the mass density (333.15 K, 20000 kPa) was 932 ± 0.5 kg/m3 and the mass density (333.15 K, 25000 kPa) was 935.2 ± 0.5 kg/m3. It also gave a mass density (343.15 K, 100 kPa) of 909.7 ± 0.5 kg/m3, a mass density (343.15 K, 1000 kPa) of 910.4 ± 0.5 kg/m3 and a mass density (343.15 K, 2500 kPa) of 911.6 ± 0.5 kg/m3. The mass density (343.15 K, 5000 kPa) was 913.6 ± 0.5 kg/m3, the mass density (343.15 K, 7500 kPa) was 915.5 ± 0.5 kg/m3 and the mass density (343.15 K, 10000 kPa) was 917.4 ± 0.5 kg/m3. It also gave a mass density (343.15 K, 15000 kPa) of 921.1 ± 0.5 kg/m3, a mass density (343.15 K, 20000 kPa) of 924.6 ± 0.5 kg/m3 and a mass density (343.15 K, 25000 kPa) of 928 ± 0.5 kg/m3. For the same compound, the mass density (353.15 K, 100 kPa) was 900.9 ± 0.5 kg/m3, the mass density (353.15 K, 1000 kPa) was 901.7 ± 0.5 kg/m3 and the mass density (353.15 K, 2500 kPa) was 903 ± 0.5 kg/m3. The mass density (353.15 K, 5000 kPa) was 905 ± 0.5 kg/m3, the mass density (353.15 K, 7500 kPa) was 907.1 ± 0.5 kg/m3 and the mass density (353.15 K, 10000 kPa) was 909.1 ± 0.5 kg/m3. For the same compound, the mass density (353.15 K, 15000 kPa) was 912.9 ± 0.5 kg/m3, the mass density (353.15 K, 20000 kPa) was 916.6 ± 0.5 kg/m3 and the mass density (353.15 K, 25000 kPa) was 920.1 ± 0.5 kg/m3.

Reference: the NIST ThermoML archive (doi:10.1021/je049893r)
